Experimental data as given in patent publication US20200368247A1, “CENICRIVIROC FOR THE TREATMENT OF FIBROSIS” (Tobira Therapeutics, Inc., priority 2014, published 2020).

How the values were obtained:
[1] = Study 202 treatment-emergent laboratory abnormalities (DAIDS grade); assay type: in vivo, human
Excerpt: The 12th subject (Subject 42001) had 2 consecutive CPK elevations (Grade 3 followed by Grade 4) that returned to normal values while continuing treatment at a subsequent visit. None of the CPK elevations were associated with clinical symptoms; no subjects discontinued due to CPK elevations and there were no differences in AEs related to musculoskeletal disorders between the CVC and EFV arms.
The number of subjects with graded treatment-emergent laboratory abnormalities in selected liver parameters of interest is shown in Table 34. No Grade 4 ALT or AST elevations were observed. Except for one Grade 3 AST elevation, all ALT and AST elevations were Grade 1 or Grade 2. […] All abnormalities in bilirubin were Grade 1 or Grade 2. […]

[2] = Study 202 fasting metabolic laboratory parameters; assay type: in vivo, human
Excerpt: All abnormalities in total cholesterol, LDL cholesterol, triglycerides, or glucose were Grade 1 or Grade 2.
Mean baseline values and changes from baseline in HbA1c, HOMA-IR, fasting LDL, fasting HDL, fasting total cholesterol, fasting total cholesterol/HDL ratio, and fasting triglycerides are shown in Table 36.

[3] = All CVC (N = 115), EFV (N = 28)
[4] = All CVC (N = 115), EFV (N = 28), through Week 48

SMILES: O=C1Nc2ccc(Cl)cc2[C@@](C#CC2CC2)(C(F)(F)F)O1 [EFV, efavirenz, reference compound]
- ALT abnormality, worst Grade 1 [1, 3]: 2 (7%) n (%)
- ALT abnormality, worst Grade 2 [1, 3]: 0 n (%)
- ALT abnormality, worst Grade 3 [1, 3]: 0 n (%)
- ALT abnormality, worst Grade 4 [1, 3]: 0 n (%)
- AST abnormality, worst Grade 1 [1, 3]: 3 (11%) n (%)
- AST abnormality, worst Grade 2 [1, 3]: 0 n (%)
- AST abnormality, worst Grade 3 [1, 3]: 0 n (%)
- AST abnormality, worst Grade 4 [1, 3]: 0 n (%)
- Alanine aminotransferase (ALT) abnormality, any worst grade [1, 3]: 2 (7%) n (%)
- Aspartate aminotransferase (AST) abnormality, any worst grade [1, 3]: 3 (11%) n (%)
- Bilirubin abnormality, any worst grade [1, 3]: 1 (4%) n (%)
- Bilirubin abnormality, worst Grade 1 [1, 3]: 1 (4%) n (%)
- Bilirubin abnormality, worst Grade 2 [1, 3]: 0 n (%)
- Bilirubin abnormality, worst Grade 3 [1, 3]: 0 n (%)
- Bilirubin abnormality, worst Grade 4 [1, 3]: 0 n (%)
- AST increased, Grade 3 [1, 4]: 0 n (%)
- AST increased, Grade 4 [1, 4]: 0 n (%)
- Any Grade 3 laboratory abnormality [1, 4]: 3 (11%) n (%)
- Any Grade 3 or Grade 4 laboratory abnormality [1, 4]: 4 (14%) n (%)
- Any Grade 4 laboratory abnormality [1, 4]: 1 (4%) n (%)
- Aspartate aminotransferase (AST) increased (Grade 3 or 4) [1, 4]: 0 n (%)
- CPK increased, Grade 3 [1, 4]: 2 (7%) n (%)
- CPK increased, Grade 4 [1, 4]: 0 n (%)
- Creatine phosphokinase (CPK) increased (Grade 3 or 4) [1, 4]: 2 (7%) n (%)
- Fibrinogen decreased (Grade 3 or 4) [1, 4]: 0 n (%)
- Fibrinogen decreased, Grade 3 [1, 4]: 0 n (%)
- Fibrinogen decreased, Grade 4 [1, 4]: 0 n (%)
- Hemoglobin decreased (Grade 3 or 4) [1, 4]: 0 n (%)
- Hemoglobin decreased, Grade 3 [1, 4]: 0 n (%)
- Hemoglobin decreased, Grade 4 [1, 4]: 0 n (%)
- Neutrophils decreased (Grade 3 or 4) [1, 4]: 1 (4%) n (%)
- Neutrophils decreased, Grade 3 [1, 4]: 0 n (%)
- Neutrophils decreased, Grade 4 [1, 4]: 1 (4%) n (%)
- Phosphate decreased (Grade 3 or 4) [1, 4]: 1 (4%) n (%)
- Phosphate decreased, Grade 3 [1, 4]: 1 (4%) n (%)
- Phosphate decreased, Grade 4 [1, 4]: 0 n (%)
- Prothrombin time/international normalized ratio increased (Grade 3 or 4) [1, 4]: 0 n (%)
- Prothrombin time/international normalized ratio increased, Grade 3 [1, 4]: 0 n (%)
- Prothrombin time/international normalized ratio increased, Grade 4 [1, 4]: 0 n (%)
- Any graded (Grade 1-4) laboratory abnormality, % ([1]; EFV): 89%
- Worst Grade 1 laboratory abnormality, % ([1]; EFV): 46%
- Worst Grade 2 laboratory abnormality, % ([1]; EFV): 29%
- Worst Grade 3 laboratory abnormality, % ([1]; EFV): 11%
- Worst Grade 4 laboratory abnormality, % ([1]; EFV): 4%
- Any fasting laboratory abnormality, worst Grade 1 [2, 4]: 6 (21%) n (%)
- Any fasting laboratory abnormality, worst Grade 2 [2, 4]: 3 (11%) n (%)
- Any fasting laboratory abnormality, worst Grade 3 [2, 4]: 0 n (%)
- Any fasting laboratory abnormality, worst Grade 4 [2, 4]: 0 n (%)
- Any graded (Grade 1-4) fasting laboratory abnormality [2, 4]: 9 (32%) n (%)
- Fasting LDL cholesterol abnormality, Grade 1 [2, 4]: 3 (11%) n (%)
- Fasting LDL cholesterol abnormality, Grade 2 [2, 4]: 3 (11%) n (%)
- Fasting LDL cholesterol abnormality, Grade 3 [2, 4]: 0 n (%)
- Fasting LDL cholesterol abnormality, Grade 4 [2, 4]: 0 n (%)
- Fasting LDL cholesterol abnormality, any grade [2, 4]: 6 (21%) n (%)
- Fasting glucose (serum, high) abnormality, Grade 1 [2, 4]: 2 (7%) n (%)
- Fasting glucose (serum, high) abnormality, Grade 2 [2, 4]: 0 n (%)
- Fasting glucose (serum, high) abnormality, Grade 3 [2, 4]: 0 n (%)
- Fasting glucose (serum, high) abnormality, Grade 4 [2, 4]: 0 n (%)
- Fasting glucose (serum, high) abnormality, any grade [2, 4]: 2 (7%) n (%)
- Fasting total cholesterol abnormality, Grade 1 [2, 4]: 6 (21%) n (%)
- Fasting total cholesterol abnormality, Grade 2 [2, 4]: 3 (11%) n (%)
- Fasting total cholesterol abnormality, Grade 3 [2, 4]: 0 n (%)
- Fasting total cholesterol abnormality, Grade 4 [2, 4]: 0 n (%)
- Fasting total cholesterol abnormality, any grade [2, 4]: 9 (32%) n (%)
- Fasting triglycerides abnormality, Grade 1 [2, 4]: 0 n (%)
- Fasting triglycerides abnormality, Grade 2 [2, 4]: 0 n (%)
- Fasting triglycerides abnormality, Grade 3 [2, 4]: 0 n (%)
- Fasting triglycerides abnormality, Grade 4 [2, 4]: 0 n (%)
- Fasting triglycerides abnormality, any grade [2, 4]: 0 n (%)
- Fasting HDL, mean change from baseline ([2]; All CVC, EFV, Week 4): 5.90 mg/dL
- Fasting total cholesterol, mean change from baseline ([2]; All CVC, EFV, Week 4): 19 mg/dL
- Fasting total cholesterol/HDL ratio, mean change from baseline ([2]; All CVC, EFV, Week 4): −0.07
- Fasting triglycerides, mean change from baseline ([2]; All CVC, EFV, Week 4): 23 mg/dL
- HOMA-IR, mean change from baseline ([2]; All CVC, EFV, Week 4): 0.30
- HbA1c, mean change from baseline ([2]; All CVC, EFV, Week 4): −0.01 % Hb
- Fasting total cholesterol, mean change from baseline ([2]; All CVC, EFV, Week 12): 18 mg/dL
- Fasting total cholesterol/HDL ratio, mean change from baseline ([2]; All CVC, EFV, Week 12): −0.41
- Fasting triglycerides, mean change from baseline ([2]; All CVC, EFV, Week 12): 3 mg/dL
- HOMA-IR, mean change from baseline ([2]; All CVC, EFV, Week 12): 0.06
- HbA1c, mean change from baseline ([2]; All CVC, EFV, Week 12): −0.07 % Hb
- Fasting total cholesterol, mean change from baseline ([2]; All CVC, EFV, Week 24): 24 mg/dL
- Fasting total cholesterol/HDL ratio, mean change from baseline ([2]; All CVC, EFV, Week 24): −0.47
- Fasting triglycerides, mean change from baseline ([2]; All CVC, EFV, Week 24): 10 mg/dL
- HbA1c, mean change from baseline ([2]; All CVC, EFV, Week 24): −0.01 % Hb
- Fasting total cholesterol, mean change from baseline ([2]; All CVC, EFV, Week 48): 26 mg/dL
- HOMA-IR, mean change from baseline ([2]; All CVC, EFV, Week 48): −0.12
- HbA1c, mean change from baseline ([2]; All CVC, EFV, Week 48): 0.08 % Hb
- change in LDL cholesterol and HDL cholesterol ([2]; EFV, through Week 48): increases
